Data reported in US8557800B2, “Sphingosine kinase inhibitors” (Apogee Biotechnology Corporation, priority 2005, dated 2013).
pIC50: −log10 of the molar value.

Tests used:
recombinant human SK = assay: Inhibition of recombinant human SK, LC/MS/MS assay; assay type: biochemical; conditions: 6 μg/ml compound
Procedure: SK activity is measured by incubation of the recombinant SK with [^3H]sphingosine and 1 mM ATP under defined conditions, followed by extraction of the assay mixture with chloroform:methanol under basic conditions. […] Radioactivity in aliquots of the aqueous phase is then quantified as a measure of [^3H]S1P formation.
In an alternate assay procedure, the recombinant human SK was incubated with unlabeled sphingosine and ATP as described above. After 30 minutes, the reactions were terminated by the addition of acetonitrile to directly extract the newly synthesized S1P. The amount of S1P in the samples is then quantified as follows. C17 base D-erythro-sphingosine and C17 SIP are used as internal standards for sphingosine and S1P, respectively. […] The lipids are then fractionation by High-Performance Liquid Chromatography using a C8-reverse phase column eluted with 1 mM methanolic ammonium formate/2 mM aqueous ammonium formate. […] Calibration curves are generated by plotting the peak area ratios of the synthetic standards for each sphingolipid, and used to determine the normalized amounts of sphingosine and S1P in the samples.
Each Compound of this invention was tested for its ability to inhibit recombinant SK using the LC/MS/MS assay described above.

[1] = system: MCF-7 human breast adenocarcinoma cells; assay: Cytotoxicity, SRB binding assay; assay type: cell-based; conditions: MCF7, inhibition of cell proliferation, 48 h, read-out: MCF-7 IC50
Procedure: To further assess the biological efficacies of the Compounds in intact cells, each Compound was evaluated for cytotoxicity using human cancer cell lines. These experiments followed methods that have been extensively used. Cell lines tested included MCF-7 human breast adenocarcinoma cells and MCF-10A non-transformed human breast epithelial cells. The indicated cell lines were treated with varying doses of the test Compound for 48 h. Cell survival was then determined using the SRB binding assay (Skehan et al., 1990, J Natl Cancer Inst 82: 1107), and the concentration of compound that inhibited proliferation by 50% (the IC50) was calculated. Values (in μM) represent the mean±sd for replicate trials.

Row | SMILES | Recombinant SK (% inhibition) (recombinant human SK) | pIC50 [1]
1 | CSc1ccc(CNC(=O)C23CC4CC(C2)CC(c2ccc(Cl)cc2)(C4)C3)cc1 [Compound 14, 3-(4-Chloro-phenyl)-adamantane-1-carboxylic acid 4-methylsulfanyl-benzylamide] | 19% | 4.44
2 | O=C(NCc1ccc(F)c(C(F)(F)F)c1)C12CC3CC(C1)CC(c1ccc(Cl)cc1)(C3)C2 [Compound 24, 3-(4-Chloro-phenyl)-adamantane-1-carboxylic acid 4-fluoro-3-trifluoromethyl-benzylamide] | 20% | 4.77
3 | O=C(NCc1ccc(O)c(O)c1)C12CC3CC(CC(C3)C1)C2 [Compound 35, Adamantane-1-carboxylic acid 3,4-dihydroxy-benzylamide] | 87% | 4.72
4 | CN1CCC(NC(=O)C23CC4CC(CC(C4)C2)C3)CC1 [Compound 50, Adamantane-1-carboxylic acid (1-methyl-piperidin-4-yl)-amide] | 0% | 3.74
5 | O=C(NCc1ccncc1)C12CC3CC(CC(C3)C1)C2 [Compound 60, Adamantane-1-carboxylic acid (pyridin-4-ylmethyl)-amide] | 0% | 5.15
6 | O=C(/C=C/c1cnc[nH]1)C12CC3CC(C1)CC(c1ccc(Cl)cc1)(C3)C2 [Compound 135, 1-[3-(4-Chloro-phenyl)-adamantan-1-yl]-3-(1H-imidazol-4-yl)-propenone] | 64% | 5.52
7 | O=C(NCc1ccc(-c2ccccc2)cc1)C12CC3CC(C1)CC(c1ccc(Cl)cc1)(C3)C2 [Compound 49, 3-(4-Chloro-phenyl)-adamantane-1-carboxylic acid (biphenyl-4-ylmethyl)-amide] | 33% | 4.17
8 | NCc1c(Cl)c(Cl)c(Cl)c(CNC(=O)C23CC4CC(C2)CC(c2ccc(Cl)cc2)(C4)C3)c1Cl [Compound 27, 3-(4-Chloro-phenyl)-adamantane-1-carboxylic acid 3-aminomethyl-2,4,5,6-tetrachloro-benzylamide] | 50% | 5.10
9 | O=C(/C=C/c1ccc(Cl)nc1)C12CC3CC(C1)CC(c1ccc(Cl)cc1)(C3)C2 [Compound 134, 1-[3-(4-Chloro-phenyl)-adamantan-1-yl]-3-(6-chloro-pyridin-3-yl)-propenone] | 52% | 4.80
10 | CC(=O)Oc1ccc(NC(=O)C23CC4CC(C2)CC(c2ccc(Cl)cc2)(C4)C3)cc1 [Compound 7, Acetic acid 4-{[3-(4-chloro-phenyl)-adamantane-1-carbonyl]-amino}-phenyl ester] | 100% | 5.52
11 | O=C(NCc1cc(F)c(F)c(F)c1)C12CC3CC(C1)CC(c1ccc(Cl)cc1)(C3)C2 [Compound 22, 3-(4-Chloro-phenyl)-adamantane-1-carboxylic acid 3,4,5-trifluoro-benzylamide] | 56% | 4.74
12 | O=C(Nc1ncnc2[nH]cnc12)C12CC3CC(C1)CC(c1ccc(Cl)cc1)(C3)C2 [Compound 73, 3-(4-Chloro-phenyl)-adamantane-1-carboxylic acid (9H-purin-6-yl)-amide] | 53% | 4.10
13 | Fc1cc(C(F)(F)F)ccc1CNCC12CC3CC(C1)CC(c1ccc(Cl)cc1)(C3)C2 [Compound 78, [3-(4-Chloro-phenyl)-adamantan-1-ylmethyl]-(2-fluoro-4-trifluoromethyl-benzyl)-amine] | 43% | 4.52
14 | O=C(NCCCN1CCCC1)C12CC3CC(C1)CC(c1ccc(Cl)cc1)(C3)C2 [Compound 54, 3-(4-Chloro-phenyl)-adamantane-1-carboxylic acid (3-pyrrolidin-1-yl-propyl)-amide] | 95% | 4.96
15 | O=C(NCCc1ccc(O)c(O)c1)C12CC3CC(CC(C3)C1)C2 [Compound 43, Adamantane-1-carboxylic acid [2-(3,4-dihydroxy-phenyl)-ethyl]-amide] | 0% | 4.57
16 | O=C(NCc1cc(F)cc(F)c1)C12CC3CC(C1)CC(c1ccc(Cl)cc1)(C3)C2 [Compound 20, 3-(4-Chloro-phenyl)-adamantane-1-carboxylic acid 3,5-difluoro-benzylamide] | 0% | 4.48
17 | CN1CCCC1CCNC(=O)C12CC3CC(CC(C3)C1)C2 (stereo not shown) [Compound 56, Adamantane-1-carboxylic acid [2-(1-methyl-pyrrolidin-2-yl)-ethyl]-amide] | 33% | 5.00
18 | CC(NC(=O)C12CC3CC(C1)CC(c1ccc(Cl)cc1)(C3)C2)c1ccc(Cl)cc1 (stereo not shown) [Compound 28, 3-(4-Chloro-phenyl)-adamantane-1-carboxylic acid [1-(4-chloro-phenyl)-ethyl]-amide] | 6% | 4.19
19 | CN(C)c1ccc(CNC(=O)C23CC4CC(C2)CC(c2ccc(Cl)cc2)(C4)C3)cc1 [Compound 31, 3-(4-Chloro-phenyl)-adamantane-1-carboxylic acid 4-dimethylamino-benzylamide] | 74% | 4.13
20 | O=C(NCc1ccc(F)c(F)c1)C12CC3CC(C1)CC(c1ccc(Cl)cc1)(C3)C2 [Compound 21, 3-(4-Chloro-phenyl)-adamantane-1-carboxylic acid 3,4-difluoro-benzylamide] | 65% | 4.57
21 | O=C(NCc1ccc(C(F)(F)F)cc1)C12CC3CC(C1)CC(c1ccc(Cl)cc1)(C3)C2 [Compound 16, 3-(4-Chloro-phenyl)-adamantane-1-carboxylic acid 4-trifluoromethyl-benzylamide] | 8% | 4.77
22 | O=C(NCc1cc(F)cc(C(F)(F)F)c1)C12CC3CC(C1)CC(c1ccc(Cl)cc1)(C3)C2 [Compound 18, 3-(4-Chloro-phenyl)-adamantane-1-carboxylic acid 3-fluoro-5-trifluoromethyl-benzylamide] | 0% | 4.72
23 | CN1CCCC1CCNCC12CC3CC(C1)CC(c1ccc(Cl)cc1)(C3)C2 (stereo not shown) [Compound 86, [3-(4-Chloro-phenyl)-adamantan-1-ylmethyl]-[2-(1-methyl-pyrrolidin-2-yl)-ethyl]-amine] | 6% | 5.30
24 | O=C(NCCc1cccc(Oc2ccccc2)c1)C12CC3CC(C1)CC(c1ccc(Cl)cc1)(C3)C2 [Compound 46, 3-(4-Chloro-phenyl)-adamantane-1-carboxylic acid [2-(3-phenoxy-phenyl)-ethyl]-amide] | 4% | 4.04
25 | O=C(NC1CC1)C12CC3CC(C1)CC(c1ccc(Cl)cc1)(C3)C2 [Compound 2, 3-(4-Chloro-phenyl)-adamantane-1-carboxylic acid cyclopropylamide] | 0% | 4.70
26 | CS(=O)(=O)c1ccc(CNC(=O)C23CC4CC(C2)CC(c2ccc(Cl)cc2)(C4)C3)cc1 [Compound 30, 3-(4-Chloro-phenyl)-adamantane-1-carboxylic acid 4-methanesulfonyl-benzylamide] | 1% | 4.85
